Tests used:
acetylated BSA = target: T1, acetylated BSA (Bos taurus, UniProt P02769); assay: Light-induced covalent labeling of model protein (slot blot, anti-biotin detection), with or without iridium catalyst Ir-9049; assay type: biochemical; details: 50 μM probe, 0.8 μM acetylated BSA, no catalyst, 20 minutes at 365 nm or 455 nm
T1 construct: purchased Promega
Method: The capacity of these vinyl-extended aryl-azide-based photoreactive groups to undergo activation by either UV or visible 455 nm light in the presence or absence of a catalyst for subsequent covalent crosslinking with neighboring proteins was further evaluated through labeling efficiency of a model protein (FIGS. 4 and 5). […] Plates remained in the dark (control) or irradiated using Efficiency Aggregators biophotoreactor for 20 minutes at either 365 nm (100% UV=^˜80 W) or 455 nm (100%=^˜80 W or 2% 2 W). To evaluate subsequent covalent labeling efficiencies, reactions were subjected to Zeba column clean-up (ThermoFisher) to remove non-crosslinked vinyl-extended-aryl-azide-biotin probes and then spotted on nitrocellulose membranes using a slot blot apparatus. Membranes were then blocked with 5% BSA (Promega) in TBST for 1 hour at room temperature and subsequently incubated overnight at 4° C. with anti-biotin antibody (Invitrogen) in TBST. The next day membranes were washed 3 times with TBST and then incubated for an hour with a secondary anti-goat-HRP-antibody (Jackson laboratories). Following three washes in TBST, membranes were treated with ECL substrate (Promega) and scanned on the chemiluminescence channel to detect BSA labeled with biotin. […]

[1] = comparator value for simple phenyl-azide; cited from earlier work

T1 sequence (P02769 25-607): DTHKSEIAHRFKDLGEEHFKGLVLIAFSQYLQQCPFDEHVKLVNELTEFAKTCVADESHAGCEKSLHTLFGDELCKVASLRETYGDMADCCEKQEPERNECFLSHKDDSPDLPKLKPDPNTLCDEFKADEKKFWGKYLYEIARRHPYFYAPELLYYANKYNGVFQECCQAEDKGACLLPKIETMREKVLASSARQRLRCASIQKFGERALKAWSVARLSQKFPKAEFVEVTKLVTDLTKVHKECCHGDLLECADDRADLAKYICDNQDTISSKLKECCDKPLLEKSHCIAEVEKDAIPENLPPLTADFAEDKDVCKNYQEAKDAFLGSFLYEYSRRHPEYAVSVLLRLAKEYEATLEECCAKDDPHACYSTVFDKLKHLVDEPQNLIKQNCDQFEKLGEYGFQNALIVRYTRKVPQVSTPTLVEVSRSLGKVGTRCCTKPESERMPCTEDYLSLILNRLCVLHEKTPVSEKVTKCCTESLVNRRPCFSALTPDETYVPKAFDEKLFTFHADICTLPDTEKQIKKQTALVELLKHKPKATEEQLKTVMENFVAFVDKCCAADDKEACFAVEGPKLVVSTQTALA

| Structure (SMILES) | UV versus 455 nm activation efficiencies (quantitated band volumes) (acetylated BSA) | λmax [1] |
| --- | --- | --- |
| C/C(=C\C(=O)NCCOCCOCCOCCOCCNC(=O)CCCC[C@@H]1SC[C@@H]2NC(=O)N[C@@H]21)c1ccc2cc(N=[N+]=[N-])ccc2c1 [Compound 9582] | greater 455 nm activation efficiencies | – |
| C/C(=C\C(=O)NCCOCCOCCOCCOCCNC(=O)CCCC[C@@H]1SC[C@@H]2NC(=O)N[C@@H]21)c1ccc2cc(N=[N+]=[N-])c(C#N)cc2c1 [Compound 9616] | greater 455 nm activation efficiencies | – |
| [N-]=[N+]=Nc1ccccc1 [phenyl-azide] | – | ~260 nm |
